{
  "source": "paper PMC4970648",
  "about": "“Studies on 16α-Hydroxylation of Steroid Molecules and Regioselective Binding Mode in Homology-Modeled Cytochrome P450-2C11” (International Journal of Medicinal Chemistry, 2010)",
  "data": [
    {"target": "[3H]PROG 16α-hydroxylating activity by male rat liver microsomes (CYP2C11) (Rattus norvegicus, UniProt P08683)", "sequence (P08683 whole entry)": "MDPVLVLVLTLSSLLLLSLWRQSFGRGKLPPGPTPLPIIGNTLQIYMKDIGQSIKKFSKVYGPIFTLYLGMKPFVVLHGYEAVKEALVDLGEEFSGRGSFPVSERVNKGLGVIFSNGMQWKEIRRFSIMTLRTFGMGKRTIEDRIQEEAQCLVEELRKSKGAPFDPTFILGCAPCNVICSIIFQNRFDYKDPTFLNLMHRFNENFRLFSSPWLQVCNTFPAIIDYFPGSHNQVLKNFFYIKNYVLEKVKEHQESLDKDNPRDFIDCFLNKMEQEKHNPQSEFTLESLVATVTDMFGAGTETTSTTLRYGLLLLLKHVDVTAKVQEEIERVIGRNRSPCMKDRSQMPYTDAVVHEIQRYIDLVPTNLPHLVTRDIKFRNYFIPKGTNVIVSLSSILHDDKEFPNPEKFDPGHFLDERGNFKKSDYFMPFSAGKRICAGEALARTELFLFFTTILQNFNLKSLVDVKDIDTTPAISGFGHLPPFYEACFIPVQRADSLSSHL", "assay": "Inhibition of [3H]progesterone 16α-hydroxylation by adult male rat liver microsomes", "conditions": "not given", "experimental": "(§1) Approximately 95-day-old male Wistar rats, castrated on the 70th day after birth, were used. The liver microsomes were prepared as previously described. The experiments were performed according to instrumental guidelines for the care and use of laboratory animals.\n(§2) The metabolism by rat liver microsomes were examined, according to our previously described procedure. Briefly, the microsomal suspension (400–600 μg of protein/2.2 mL, total volume of the reaction mixture) was preincubated with [3H]PROG (20 nM) under the absence or presence of an unlabeled steroid (0.01–10 μM) at 36°C for 30 min. […] After the incubation, two identical samples were mixed and extracted with toluene. The toluene-extractable [3H]PROG metabolites (more than 90%) were isolated by various paper chromatographic systems and then identified by recrysallization method. Other miscellaneous procedures are described in our previous papers.", "units": {"[3H]PROG16α-hydroxylation (IC40)": "nM"}, "values": [
      {"smiles": "CC(=O)[C@H]1[C@H](O)C[C@H]2[C@@H]3CC[C@H]4C[C@@H](O)CC[C@]4(C)[C@H]3CC[C@@]21C", "note": "[compound 36, 3β,16α-Dihydroxy-5α-pregnan-20-one]", "[3H]PROG16α-hydroxylation (IC40)": 1150}
    ]},
    {"target": "[3H]PROG 16α-hydroxylating activity by male rat liver microsomes (CYP2C11) (Rattus norvegicus, UniProt P08683)", "assay": "Inhibition of [3H]progesterone 16α-hydroxylation by adult male rat liver microsomes", "conditions": "40% inhibition not reached at 10 μM of unlabeled steroid; male rat liver microsomes", "experimental": "as §1, §2", "values": [
      {"smiles": "C[C@]12CC[C@H]3[C@@H](CCC4=CC(=O)CC[C@@]43C)[C@@H]1CC[C@@H]2C(=O)O", "note": "[compound 39, 4-Androsten-3-one; 17-β-carboxylaic acid]", "[3H]PROG16α-hydroxylation (IC40), given as bound in μM": ">10 μM^e"},
      {"smiles": "CC(=O)O[C@H]1CC[C@H]2[C@@H]3CCC4=CC(=O)CC[C@]4(C)[C@H]3CC[C@]12C", "note": "[compound 42, 17β-Acetoxytestosterone]", "[3H]PROG16α-hydroxylation (IC40), given as bound in μM": ">10 µM"},
      {"smiles": "C[C@]12CC[C@H](OS(=O)(=O)O)CC1=CC[C@@H]1[C@@H]2CC[C@]2(C)C(=O)CC[C@@H]12", "note": "[compound 44, Dehydroepiandrosterone-3-sulfate]", "[3H]PROG16α-hydroxylation (IC40), given as bound in μM": ">10 µM"},
      {"smiles": "C[C@@]12CCC[C@H]1[C@@H]1CC[C@H]3CCCC[C@]3(C)[C@H]1CC2", "note": "[compound 46, 5α-Androstane]", "[3H]PROG16α-hydroxylation (IC40), given as bound in μM": ">10 µM"},
      {"smiles": "C[C@@]12CCC[C@H]1[C@@H]1CC[C@@H]3CCCC[C@]3(C)[C@H]1CC2", "note": "[compound 47, 5β-Androstane]", "[3H]PROG16α-hydroxylation (IC40), given as bound in μM": ">10 µM"},
      {"smiles": "C[C@]12CCCC[C@@H]1CC[C@@H]1[C@@H]2CC[C@]2(C)[C@@H](O)CC[C@@H]12", "note": "[compound 52, 5α-Androstan-17β-ol]", "[3H]PROG16α-hydroxylation (IC40), given as bound in μM": ">10 µM"},
      {"smiles": "C[C@]12CC[C@@H](O)C[C@@H]1CC[C@@H]1[C@@H]2CC[C@]2(C)[C@@H](OS(=O)(=O)O)CC[C@@H]12", "note": "[compound 64, 5α-Androstan-3α,17β-diol-17-sulfate]", "[3H]PROG16α-hydroxylation (IC40), given as bound in μM": ">10 µM"}
    ]},
    {"target": "[3H]PROG 16α-hydroxylating activity by male rat liver microsomes (CYP2C11) (Rattus norvegicus, UniProt P08683)", "assay": "Inhibition of [3H]progesterone 16α-hydroxylation by adult male rat liver microsomes", "conditions": "molar concentration of unlabeled steroid causing 40% inhibition; [3H]PROG 20 nM; unlabeled steroid 0.01–10 μM; male rat liver microsomes", "experimental": "as §1, §2", "units": {"[3H]PROG16α-hydroxylation (IC40)": "nM"}, "values": [
      {"smiles": "C[C@]12CCC(=O)C=C1CC[C@@H]1[C@@H]2CC[C@]2(C)C(=O)CC[C@@H]12", "note": "[compound 38, 4-Androsten-3,17-dione]", "[3H]PROG16α-hydroxylation (IC40)": 1000},
      {"smiles": "COC(=O)[C@H]1CC[C@H]2[C@@H]3CCC4=CC(=O)CC[C@]4(C)[C@H]3CC[C@]12C", "note": "[compound 40, 4-Androsten-3-one;17-β-carboxylaic acid methyl ester]", "[3H]PROG16α-hydroxylation (IC40)": 801},
      {"smiles": "C[C@]12CC[C@H]3[C@@H](CCC4=CC(=O)CC[C@@]43C)[C@@H]1CC[C@@H]2O", "note": "[compound 41, Testosterone]", "[3H]PROG16α-hydroxylation (IC40)": 1450},
      {"smiles": "C[C@]12CC[C@H](O)CC1=CC[C@@H]1[C@@H]2CC[C@]2(C)C(=O)CC[C@@H]12", "note": "[compound 43, Dehydroepiandrosterone]", "[3H]PROG16α-hydroxylation (IC40)": 680},
      {"smiles": "C[C@]12CC[C@H]3[C@@H](CC=C4C[C@@H](O)CC[C@@]43C)[C@@H]1CC[C@@H]2O", "note": "[compound 45, 5-Androstenediol]", "[3H]PROG16α-hydroxylation (IC40)": 640},
      {"smiles": "C[C@@]12CCC[C@H]1[C@@H]1CC[C@H]3C[C@H](O)CC[C@]3(C)[C@H]1CC2", "note": "[compound 48, 5α-Androstan-3α-ol]", "[3H]PROG16α-hydroxylation (IC40)": 1030},
      {"smiles": "C[C@@]12CCC[C@H]1[C@@H]1CC[C@H]3C[C@@H](O)CC[C@]3(C)[C@H]1CC2", "note": "[compound 49, 5α-Androstan-3β-ol]", "[3H]PROG16α-hydroxylation (IC40)": 650},
      {"smiles": "C[C@@]12CCC[C@H]1[C@@H]1CC[C@@H]3C[C@H](O)CC[C@]3(C)[C@H]1CC2", "note": "[compound 50, 5β-Androstan-3α-ol]", "[3H]PROG16α-hydroxylation (IC40)": 510},
      {"smiles": "C[C@@]12CCC[C@H]1[C@@H]1CC[C@@H]3C[C@@H](O)CC[C@]3(C)[C@H]1CC2", "note": "[compound 51, 5β-Androstan-3β-ol]", "[3H]PROG16α-hydroxylation (IC40)": 160},
      {"smiles": "C[C@]12CCCC[C@H]1CC[C@@H]1[C@@H]2CC[C@]2(C)[C@@H](O)CC[C@@H]12", "note": "[compound 53, 5β-Androstan-17β-ol]", "[3H]PROG16α-hydroxylation (IC40)": 365},
      {"smiles": "C[C@]12CCC(=O)C[C@@H]1CC[C@@H]1[C@@H]2CC[C@]2(C)C(=O)CC[C@@H]12", "note": "[compound 54, 5α-Androstan-3,17-dione]", "[3H]PROG16α-hydroxylation (IC40)": 650},
      {"smiles": "C[C@]12CCC(=O)C[C@H]1CC[C@@H]1[C@@H]2CC[C@]2(C)C(=O)CC[C@@H]12", "note": "[compound 55, 5β-Androstan-3,17-dione]", "[3H]PROG16α-hydroxylation (IC40)": 480},
      {"smiles": "C[C@]12CC[C@@H](O)C[C@@H]1CC[C@@H]1[C@@H]2CC[C@]2(C)[C@@H](O)CC[C@@H]12", "note": "[compound 62, 5α-Androstan-3α,17β-diol]", "[3H]PROG16α-hydroxylation (IC40)": 125},
      {"smiles": "CC(=O)O[C@H]1CC[C@H]2[C@@H]3CC[C@H]4C[C@H](O)CC[C@]4(C)[C@H]3CC[C@]12C", "note": "[compound 63, 5α-Androstan-3α,17β-diol-17-acetate]", "[3H]PROG16α-hydroxylation (IC40)": 300},
      {"smiles": "C[C@]12CC[C@H](O)C[C@@H]1CC[C@@H]1[C@@H]2CC[C@]2(C)[C@@H](O)CC[C@@H]12", "note": "[compound 65, 5α-Androstan-3β,17β-diol]", "[3H]PROG16α-hydroxylation (IC40)": 1110},
      {"smiles": "C[C@]12CC[C@@H](O)C[C@H]1CC[C@@H]1[C@@H]2CC[C@]2(C)[C@@H](O)CC[C@@H]12", "note": "[compound 66, 5β-Androstan-3 α,17 β -diol]", "[3H]PROG16α-hydroxylation (IC40)": 69},
      {"smiles": "C[C@]12CC[C@@H](O)C[C@H]1CC[C@@H]1[C@@H]2CC[C@]2(C)[C@@H](C(=O)O)CC[C@@H]12", "note": "[compound 67, 5β-Androstan-3α-ol-17β-carboxylic acid]", "[3H]PROG16α-hydroxylation (IC40)": 360},
      {"smiles": "COC(=O)[C@@H]1C[C@@H](O)C[C@H]2CC[C@H]3[C@@H]4CCC[C@@]4(C)CC[C@@H]3[C@]21C", "note": "[compound 68, 5β-Androstan-3α-ol-1β-carboxylic acid methyl ester]", "[3H]PROG16α-hydroxylation (IC40)": 43},
      {"smiles": "C[C@]12CC[C@H](O)C[C@H]1CC[C@@H]1[C@@H]2CC[C@]2(C)[C@@H](O)CC[C@@H]12", "note": "[compound 69, 5β-Androstan-3β,17β-diol]", "[3H]PROG16α-hydroxylation (IC40)": 320}
    ]}
  ]
}
